Measurements reported in US9115140B2, “Thienopyrimidine derivatives, processes for the preparation thereof and therapeutic uses thereof” (SANOFI, priority 2012, dated 2015).

Columns and labels:
[1] = target: GST-Alk protein (wild-type form 1058-1620) (Homo sapiens (Human), UniProt Q9UM73); assay: HTRF kinase test with GST-Alk protein, wild-type form (ATP 400 microM, enzyme 2 nM); assay type: biochemical; conditions: GST-Alk wild-type form 1058-1620, ATP 400 microM
[2] = target: GST-Alk protein (mutant L1196M 1058-1620) (Homo sapiens (Human), UniProt Q9UM73, L1196M); assay: HTRF kinase test with GST-Alk protein, mutant L1196M (ATP 200 microM, enzyme 1 nM); assay type: biochemical; conditions: GST-Alk mutant L1196M 1058-1620, ATP 200 microM
Sequence of GST-Alk protein (mutant L1196M 1058-1620) (Q9UM73 1058-1620 L1196M): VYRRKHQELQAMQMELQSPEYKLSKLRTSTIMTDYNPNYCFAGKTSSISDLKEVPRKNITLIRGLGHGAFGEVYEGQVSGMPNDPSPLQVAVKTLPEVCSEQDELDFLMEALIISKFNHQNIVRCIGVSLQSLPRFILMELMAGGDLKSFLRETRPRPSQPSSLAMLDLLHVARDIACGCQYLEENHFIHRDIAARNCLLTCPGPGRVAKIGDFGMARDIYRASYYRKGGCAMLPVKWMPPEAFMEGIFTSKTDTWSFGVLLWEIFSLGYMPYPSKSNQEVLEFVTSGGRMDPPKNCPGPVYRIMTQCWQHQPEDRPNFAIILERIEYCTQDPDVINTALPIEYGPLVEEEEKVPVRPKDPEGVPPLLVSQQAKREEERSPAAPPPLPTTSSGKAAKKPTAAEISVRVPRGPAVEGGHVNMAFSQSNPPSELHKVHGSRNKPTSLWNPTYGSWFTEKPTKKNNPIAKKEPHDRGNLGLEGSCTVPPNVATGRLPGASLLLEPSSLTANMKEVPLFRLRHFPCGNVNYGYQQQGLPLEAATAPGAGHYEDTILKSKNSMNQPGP

Sequence of GST-Alk protein (wild-type form 1058-1620) (Q9UM73 1058-1620): as the sequence (Q9UM73 1058-1620 L1196M) above, with M139L counted along it

`COc1nc(C)ccc1-c1c(CO)sc2cnc(Nc3cc(C)c(N4CCN(C)CC4)cc3OC(C)C)nc12` [Compound I-191, [7-(2-Methoxy-6-methylpyridin-3-yl)-2-{[5-methyl-4-(4-methylpiperazin-1-yl)-2-(propan-2-yloxy)phenyl]amino}thieno[3,2-d]pyrimidin-6-yl]methanol] showed an IC50 [1] of 12 nM and an IC50 [2] of 14 nM.
